Values joined by “and” are separate entries in the source; they are usually repeats but may differ in a detail not shown here. Equal values may be shown once. Read-outs that look alike come from different tables or passages of the source.

Data set [1] is described as follows: Bidirectional permeability in Caco-2 cells. The data set is classed as in vitro ADME, human. The method, then:
Cell culture: Caco-2 cells (ATCC) were seeded onto polycarbonate (PC) membranes in 96-well insert plates. The cells were cultured in media for 21-28 days prior to performing the transport assays.
Validation of monolayer integrity: Once the Caco-2 cells formed a confluent monolayer, their integrity was evaluated using a Lucifer yellow rejection assay. The monolayer integrity was further evaluated by measuring, in duplicate wells, the unidirectional (A→B) permeability of nadolol (a low permeability marker) and metoprolol (a high permeability marker), as well as bidirectional permeability of digoxin (a P-glycoprotein substrate marker).
Assay: The compounds were assayed under bidirectional transport conditions (A→B and B→A) at a concentration of 2.00 μM (with DMSO≤1.0%), using a transport buffer composed of HBSS containing 10.0 mM HEPES, pH 7.40±0.05. The incubation was carried out at 37° C., with 5.0% CO2 and relatively saturated humidity for 2 hours.
The dosing solution was spiked and mixed with the transport buffer and a Stop Solution (containing an internal standard (IS)) to create a T0 sample.
Sample analysis: Following the incubation, all of the samples were analyzed using LC-MS/MS. The concentrations of the test compounds were expressed as peak area ratios of the analytes versus the IS.

The target in data set [2] is T1, CYP2C9 (Homo sapiens, UniProt P11712).
T1 construct: pre-incubation of the human liver microsomes with the test compound; tissue Corning; host or cells: human liver microsomes
In words: CYP inhibition / time-dependent inhibition, CYP2C9_Diclofenac. The conditions noted are these: role: inhibitor. The format is in vitro ADME. The method, then:
(§1) The time-dependent inactivation potency of the test compound to CYP enzymatic activities was assessed by the pre-incubation of the human liver microsomes with the test compound in the presence and absence of NADPH, followed by the incubation with the discrete marker substrates, as follows.
(§2) Pre-incubation with human liver microsomes (HLMs): The TDI inactivation potency on CYP enzymatic activities was evaluated through pre-incubation with HLMs (Corning). A liver microsome mixture at a concentration of 0.1 mg/mL, and the test compound at 8 different concentrations (0, 0.05, 0.165, 0.5, 1.65, 5.0, 16.5, or 50.0 μM) was warmed at 37° C. for 10 minutes. Concurrently, a set of known time-dependent inactivators was also prepared in duplicate for comparison. Following this, NADPH (1.0 mM) was added to one group (Group 1), and an equal volume of potassium phosphate buffer to the second group (Group 2), marking the beginning of a 30-minute pre-incubation at 37° C.
(§3) Incubation: After pre-incubation, the marker substrate, or marker substrate plus NADPH was added to the mixture, thereby initiating the incubation. The duration of the incubation was dependent on the type of CYP isoform being evaluated. For example, with the CYP3A isoform, the mixture was incubated over 3 minutes utilizing midazolam as the marker substrate (2.0 μM), verapamil as the standard inactivator (3.5 μM).
(§4) Termination of Reaction: Following the incubation, ice-cooled acetonitrile containing the internal standard (IS) was added to halt the reactions. Metabolites generated from the marker substrates were then measured via LC-MS/MS, assessed based on peak area ratios of the analyte to IS.

Data set [3] addresses T2, hTRPV1 (Homo sapiens, UniProt Q8NER1).
T2 construct: CDS of NM_080704.4, inserted into the multiple cloning site of pcDNA3.1(+); host or cells: CHO/hKv7.2/3
In words: hTRPV1 dual activity electrophysiology, CHO cells co-expressing hKv7.2/3 and hTRPV1. The data set is classed as cell-based.

Data set [4] addresses T3, CYP2C19 (Homo sapiens, UniProt P33261).
T3 construct: pre-incubation of the human liver microsomes with the test compound; tissue Corning; host or cells: human liver microsomes
Description: CYP inhibition / time-dependent inhibition, CYP2C19_S-Mephenytoin. Particulars: role: inhibitor. The format is in vitro ADME. The method, then:
as §1, §2, §3, §4

Where [5] appears, read: Dual hTRPV1 / Dual Expressing CHO, CAP IC50, Kv7.2/3 co-expressed and activated, capsaicin.

T3 sequence (P33261 whole entry): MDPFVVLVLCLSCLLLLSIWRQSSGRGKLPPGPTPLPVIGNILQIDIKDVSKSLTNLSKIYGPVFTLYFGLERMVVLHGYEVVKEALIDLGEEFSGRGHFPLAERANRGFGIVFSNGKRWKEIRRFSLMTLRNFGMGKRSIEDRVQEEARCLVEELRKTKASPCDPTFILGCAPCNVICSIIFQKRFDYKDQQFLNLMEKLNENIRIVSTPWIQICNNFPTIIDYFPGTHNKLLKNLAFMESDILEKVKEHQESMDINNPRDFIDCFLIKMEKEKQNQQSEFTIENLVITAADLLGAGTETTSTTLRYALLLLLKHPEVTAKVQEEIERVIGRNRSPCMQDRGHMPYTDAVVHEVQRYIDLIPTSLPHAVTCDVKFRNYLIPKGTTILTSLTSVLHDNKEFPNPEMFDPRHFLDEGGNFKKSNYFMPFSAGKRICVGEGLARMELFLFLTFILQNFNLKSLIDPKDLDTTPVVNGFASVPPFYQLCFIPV
T1 sequence (P11712 whole entry): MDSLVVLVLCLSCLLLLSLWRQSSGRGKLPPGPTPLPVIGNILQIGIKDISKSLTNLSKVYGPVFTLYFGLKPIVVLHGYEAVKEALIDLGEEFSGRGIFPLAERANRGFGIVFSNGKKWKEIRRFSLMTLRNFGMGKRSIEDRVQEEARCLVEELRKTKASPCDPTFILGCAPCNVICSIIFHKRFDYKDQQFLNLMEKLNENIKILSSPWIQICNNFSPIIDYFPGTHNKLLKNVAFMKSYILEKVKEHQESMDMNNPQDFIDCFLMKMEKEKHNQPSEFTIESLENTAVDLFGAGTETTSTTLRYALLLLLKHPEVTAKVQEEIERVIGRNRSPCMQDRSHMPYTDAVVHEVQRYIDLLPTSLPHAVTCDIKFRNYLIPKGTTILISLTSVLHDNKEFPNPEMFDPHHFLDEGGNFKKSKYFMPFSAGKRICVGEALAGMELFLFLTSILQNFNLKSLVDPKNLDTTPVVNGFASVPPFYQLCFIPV
T2 sequence (Q8NER1 whole entry): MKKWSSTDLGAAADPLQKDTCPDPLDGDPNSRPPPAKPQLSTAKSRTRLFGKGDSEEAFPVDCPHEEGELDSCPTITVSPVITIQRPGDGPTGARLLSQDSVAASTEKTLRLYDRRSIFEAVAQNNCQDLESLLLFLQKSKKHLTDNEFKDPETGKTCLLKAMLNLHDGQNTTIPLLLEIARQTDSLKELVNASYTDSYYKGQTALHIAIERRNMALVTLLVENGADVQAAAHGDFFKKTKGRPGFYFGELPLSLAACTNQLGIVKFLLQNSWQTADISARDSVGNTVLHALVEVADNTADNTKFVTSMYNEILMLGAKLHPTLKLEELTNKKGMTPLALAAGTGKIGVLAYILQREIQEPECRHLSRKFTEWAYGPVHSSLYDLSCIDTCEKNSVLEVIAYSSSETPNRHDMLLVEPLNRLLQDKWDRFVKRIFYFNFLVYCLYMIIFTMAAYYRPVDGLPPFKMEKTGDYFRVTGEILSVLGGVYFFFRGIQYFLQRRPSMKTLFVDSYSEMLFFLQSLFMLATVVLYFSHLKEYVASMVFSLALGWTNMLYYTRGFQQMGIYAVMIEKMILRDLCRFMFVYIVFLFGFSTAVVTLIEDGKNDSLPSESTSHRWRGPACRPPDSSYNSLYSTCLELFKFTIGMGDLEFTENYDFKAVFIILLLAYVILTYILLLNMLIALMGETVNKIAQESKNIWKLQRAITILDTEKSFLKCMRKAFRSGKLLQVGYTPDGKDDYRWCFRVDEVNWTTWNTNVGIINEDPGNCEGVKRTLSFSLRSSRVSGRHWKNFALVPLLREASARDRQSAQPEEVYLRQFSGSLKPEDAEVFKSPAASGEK

On to `O=C(Cc1nccc(-n2cc(Cl)c3cc(Cl)cc(Cl)c32)n1)NC1COCC1O` (centres unmarked) [Compound 760], for which the “Caco-2 AB” value in data set [1] came to 7.6. The IC50 in data set [2] (Table 9, read-out: CYP inhibition IC50 CYP2C9) is 44300 nM; in data set [3] (setting [5]), 0.201 nM; in data set [3] (IC50 of hTRPV1 current inhibition in CHOs with both targets co-expressed and activated, EP), approximately 0.1 nM; in data set [4] (Table 9, read-out: CYP inhibition IC50 CYP2C19) it was more than 50000 nM. Moreover, the inhibition at 100 µM in data set [3] (CHO, read-out: hTRPV1 current inhibition) came out at 46 ± 13.7%.
As for `O=C(Cc1cc(-n2cc(Cl)c3cc(Cl)cc(Cl)c32)ccc1F)NCCO` [Compound 627], the 50% inhibitory concentration (IC50) in data set [3] (setting [5]) is 0.26 nM and 0.27 nM.
As to `O=C(Cc1ccnc(-n2cc(Cl)c3cc(Cl)cc(Cl)c32)n1)N[C@@H]1COC[C@H]1O` [Compound 820], the “Caco-2 Efflux ratio” value in data set [1] (2.00 μM, 120 min) came to 2.49. Also, the efflux ratio at 2 h, 2 µM in data set [1] (human, Caco-2, pH 7.4, 2.00 μM) was less than 3. This compound returned an IC50 in data set [3] (setting [5]) of 48 nM.
For `O=C(Cc1cncc(-n2cc(Cl)c3cc(Cl)cc(Cl)c32)c1)N[C@@H]1COC[C@H]1O` [Compound 661], in data set [1], the “Caco-2 AB” value was 1.78. Moreover, the IC50 in data set [2] ((+)NADPH pre-incubation, substrate diclofenac, read-out: IC50 (+)NADPH CYP2C9_Diclofenac) was 13000 nM; in data set [2] ((−)NADPH pre-incubation, substrate diclofenac, read-out: IC50 (−)NADPH CYP2C9_Diclofenac), 14800 nM; in data set [3] (setting [5]), 0.07 nM and 0.068 nM; in data set [4] ((+)NADPH pre-incubation, substrate S-mephenytoin, read-out: IC50 (+)NADPH CYP2C19_S-Mephenytoin), 18500 nM; in data set [4] ((−)NADPH pre-incubation, substrate S-mephenytoin, read-out: IC50 (−)NADPH CYP2C19_S-Mephenytoin), 15600 nM. In addition, the “TRPV1 inhibition, dual-expressing CHO” value is “mild inhibition” in data set [3] (0.01 nM) and “inhibited” in data set [3] (0.1 nM). Besides, the “Potency in dual-expressing CHO vs CHO expressing only TRPV1” value in data set [3] (cho cells) was > 200,000 fold.
In turn, `O=C(Cc1cc(-n2cc(C(F)(F)F)c3cc(Cl)cc(Cl)c32)ncn1)NCCO` [Compound 843] returned an IC50 in data set [3] (setting [5]) of 0.528 nM.

One may read the IC50 as the concentration needed to halve the response being measured. In general, inhibition refers to how much of the control response was suppressed. A word on the efflux ratio: it is the permeability from basolateral to apical divided by that in the opposite direction, in the common usage.
